The test system of assay [1] is cJun bZIP. As to the kind of experiment: CD thermal denaturation of heterodimer with cJun bZIP. The format is binding, human. On the procedure:
Figure 5 TBS winner peptide HingeW binds cJun preferentially over A-FosW. CD spectra (20 °C) show the binding of cJun to either (A) HingeW or (B) A-FosW. […] However, the effect is larger for HingeW, indicating a greater increase in peptide helicity. Similarly, the thermal denaturation of cJun bound to either (C) HingeW or (D) A-FosW is right-shifted from the average of the component peptide denaturation profiles. […] CD dimer exchange spectra show (E) an increase in helicity when HingeW is mixed with the A-FosW/cJun heterodimer as the HingeW exchanges with the A-FosW due to the binding preference of cJun for HingeW and (F) no shift from the average is observed when A-FosW is mixed with the HingeW/cJun heterodimer, indicating no change in dimer populations. Arrows are shown to highlight the shift from the average at 190 and 222 nm. In all experiments, the total sample peptide concentration was fixed to 10 μM, using equimolar concentrations of each component peptide to remove concentration-dependent effects. […]
µM) alongside ampicillin, kanamycin and chloramphenicol to maintain the required plasmids, and IPTG (1 mM) to induce protein expression. The library transformants were […]
however a lower stringency is used initially before selection is increased in later steps.
Colonies from this first round of selection were pooled and serially grown in liquid culture at starting OD600 of 0.05 and grown at 37°C with shaking at 200 rpm until the OD600 […]
increased to the optimum 4 µM in subsequent passages. Bacteria containing the most effective functional antagonists were expected to produce higher levels of TRE-mDHFR which provides a growth advantage, and these will dominate the culture. At each passage step, a sample of the culture was plated on LB agar (supplemented with antibiotics to maintain plasmids) to select and sequence individual colonies, and a DNA pool was also sequenced. This allows the occurrence of library members to be monitored as winner sequences are selected for. […]

The subject of assay [2] is cJun bZIP. Nature of the assay: CD spectroscopy, binding to cJun bZIP (helicity of heterodimer). Set-up: species or system human. The note with it: 20 °C, total peptide 10 μM equimolar, pH 7.4. An excerpt:
Experiments were next undertaken to compare the binding of A-FosW and TBS-optimized HingeW to the cJun bZIP. CD spectroscopy was utilized to measure the global secondary structure of homo- and heterodimeric peptide samples, providing information on global α-helicity and thermal denaturation temperatures (Tm). The HingeW/cJun spectrum was 82% higher in α-helical content relative to the average of the two-component spectra (Figure 5A). […] This occurs as the total peptide concentration of the sample is kept constant (10 μM), meaning that the concentration of each component is halved upon mixing. If a sample component structure is unchanged upon mixing (i.e., no binding occurs), the CD signal for each component will average. The same, though smaller, trend was observed from the A-FosW/cJun spectra, where the α-helicity was 39% greater than the average (Figure 5B). This increased α-helical gain upon binding of HingeW/cJun implies a higher affinity interaction. Of note is that HingeW in isolation is 12.9% less helical relative to A-FosW. The AGADIR helical propensity calculator was used to calculate predicted helicity scores of 14.5 and 13.2 for A-FosW and HingeW, respectively.[42] […]
increased to the optimum 4 µM in subsequent passages. […] This allows the occurrence of library members to be monitored as winner sequences are selected for. […]

In a further assay the test system is TRE DNA. As to the kind of experiment: EMSA, binding of cJun bZIP to TRE DNA. The note with it: cJun bZIP 20 μM, TRE DNA 2 μM, relative to DNA alone. On the procedure: To provide further evidence of functional antagonism, an electrophoretic mobility shift assay (EMSA) was employed. […] No bound cJun/TRE DNA band was observed as the overall charge of this complex prohibited entry into the gel. Antagonism was therefore best observed by monitoring the intensity of the free DNA band.
Isothermal Titration Calorimetry (ITC): Peptides were studied in an ITC buffer consisting of 10 mM potassium phosphate, 150 mM potassium fluoride and 5 mM TCEP at pH 7.4. Using a MicroCal VP-ITC instrument (Malvern), 10 µL injections of antagonist peptide (HingeW or A-FosW) at 10 µM were injected into the cell containing cJun at 1 µM.
MicroCal Origin software was used to record and analyse the heat change upon addition.
Control experiments involved the injection of the antagonist peptide sample into the cell containing ITC buffer alone to determine the heat of dilution which was subtracted. The resulting binding data were fit to a one site binding model to extract the enthalpy change of binding (ΔH) and the equilibrium binding constant (K D), from which the free energy change of binding (ΔG) and the entropy change of binding (ΔS) was calculated (41).
Thermodynamic parameters are presented as an average of two independent experiments with errors given as one standard deviation. […]

With “LEQRAEELARENEELEKEAEELEQELDELQAEIEQLEERNYALRKEIEDLQKQLEKL [A-FosW, N-terminal AS and C-terminal GAP caps, 6xHis-tagged]”, in the assay on cJun bZIP [1] (222 nm thermal denaturation), the “smaller initial transition of heterodimer with cJun (double transition)” value is ~30 °C. Besides, the “Tm of heterodimer with cJun” value in the assay on cJun bZIP [1] (222 nm, 1-90 °C at 1 °C increments, total peptide 10 μM equimolar, pH 7.4, two-state model) is 69.9 °C. In the assay on cJun bZIP [1] (heterodimer Tm minus average of component peptide denaturation profiles, for HingeW an estimate because homodimer Tm undeterminable), the “ΔTm from component average (heterodimer with cJun)” value is 27.5 °C. For the same substance, in the assay on cJun bZIP [2] (150 mM potassium phosphate, 150 mM KF, 5 mM TCEP), the “increase in α-helical content of heterodimer with cJun relative to average of component spectra” value is 39%. Moreover, in the assay on cJun bZIP [2], the “Fraction helicity of heterodimer with cJun” value was 38.7%.

On to “cJun bZIP: human cJun bZIP domain, Arg252 to Leu308 (target protein)”, for which the “free DNA band intensity on adding cJun bZIP” value with TRE DNA is given as “significant reduction in the free DNA band intensity”.

These data come from publication PMC9088798, “An Approach to Derive Functional Peptide Inhibitors of Transcription Factor Activity” (JACS Au, 2022).
